Four molecules from ChEMBL document CHEMBL1145498, “A systematic interaction map of validated kinase inhibitors with Ser/Thr kinases” (Proc Natl Acad Sci U S A, 2007) can be followed below.

The ΔTm is the change in melting temperature against a reference sample.

Assay [1] deals with Calcium/calmodulin-dependent protein kinase type 1D (Homo sapiens) (UniProt Q8IU85).
Assay [2] addresses Calcium/calmodulin-dependent protein kinase type 1G (Homo sapiens) (UniProt Q96NX5).
Assay [3] has as its target Cyclin-dependent kinase 6 (Homo sapiens) (UniProt Q00534).
The target of assay [4] is Dual specificity protein kinase CLK1 (Homo sapiens) (UniProt P49759).
In assay [5] the target is Death-associated protein kinase 3 (Homo sapiens) (UniProt O43293).
Sequence of Death-associated protein kinase 3 (Homo sapiens) (O43293 whole entry, looked up): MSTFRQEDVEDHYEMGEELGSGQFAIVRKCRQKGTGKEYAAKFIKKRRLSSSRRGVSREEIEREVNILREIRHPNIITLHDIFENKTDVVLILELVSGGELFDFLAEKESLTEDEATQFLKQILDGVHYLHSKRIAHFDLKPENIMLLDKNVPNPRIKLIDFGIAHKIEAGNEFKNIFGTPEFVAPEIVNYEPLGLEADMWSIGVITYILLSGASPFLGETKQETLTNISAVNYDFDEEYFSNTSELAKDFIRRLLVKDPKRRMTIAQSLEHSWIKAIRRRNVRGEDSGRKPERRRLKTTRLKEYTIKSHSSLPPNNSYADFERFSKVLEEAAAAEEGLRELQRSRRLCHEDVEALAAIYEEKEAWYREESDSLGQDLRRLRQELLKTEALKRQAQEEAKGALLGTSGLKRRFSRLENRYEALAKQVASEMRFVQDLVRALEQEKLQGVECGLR
Assay [6] concerns the target Dual specificity mitogen-activated protein kinase kinase 2 (Homo sapiens, UniProt P36507).
The target in assay [7] is Mitogen-activated protein kinase 3 (Homo sapiens, UniProt P27361).
Sequence of Mitogen-activated protein kinase 3 (P27361 whole entry): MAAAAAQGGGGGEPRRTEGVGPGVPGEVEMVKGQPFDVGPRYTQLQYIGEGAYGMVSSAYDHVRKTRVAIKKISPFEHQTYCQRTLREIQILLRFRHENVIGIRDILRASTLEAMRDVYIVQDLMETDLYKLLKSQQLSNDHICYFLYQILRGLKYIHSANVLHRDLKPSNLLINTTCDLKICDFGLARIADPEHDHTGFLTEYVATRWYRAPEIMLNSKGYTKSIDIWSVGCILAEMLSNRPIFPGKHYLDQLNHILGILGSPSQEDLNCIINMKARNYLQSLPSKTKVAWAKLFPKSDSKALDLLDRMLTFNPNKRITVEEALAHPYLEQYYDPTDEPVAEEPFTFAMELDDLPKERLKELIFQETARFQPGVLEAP
The target of assay [8] is T1, Serine/threonine-protein kinase Nek2 (Homo sapiens) (UniProt P51955).
T1 sequence (whole entry): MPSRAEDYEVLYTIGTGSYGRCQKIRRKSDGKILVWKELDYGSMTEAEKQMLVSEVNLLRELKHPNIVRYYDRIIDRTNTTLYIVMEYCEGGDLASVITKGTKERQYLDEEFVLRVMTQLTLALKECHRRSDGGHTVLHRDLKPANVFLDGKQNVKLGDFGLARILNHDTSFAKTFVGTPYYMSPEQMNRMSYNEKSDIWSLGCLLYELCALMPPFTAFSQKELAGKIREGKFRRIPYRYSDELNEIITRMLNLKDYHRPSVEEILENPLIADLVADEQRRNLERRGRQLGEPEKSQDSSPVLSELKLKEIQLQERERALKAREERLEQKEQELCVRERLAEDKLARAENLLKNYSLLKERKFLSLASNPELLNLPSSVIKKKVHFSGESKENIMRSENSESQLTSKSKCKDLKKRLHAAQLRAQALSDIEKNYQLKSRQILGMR

Assay [9] concerns the target Serine/threonine-protein kinase Nek6 (Homo sapiens) (UniProt Q9HC98).
The target in assay [10] is Serine/threonine-protein kinase OSR1 (Homo sapiens) (UniProt O95747).
Sequence of Serine/threonine-protein kinase OSR1 (Homo sapiens) (O95747 2-527 limits assumed): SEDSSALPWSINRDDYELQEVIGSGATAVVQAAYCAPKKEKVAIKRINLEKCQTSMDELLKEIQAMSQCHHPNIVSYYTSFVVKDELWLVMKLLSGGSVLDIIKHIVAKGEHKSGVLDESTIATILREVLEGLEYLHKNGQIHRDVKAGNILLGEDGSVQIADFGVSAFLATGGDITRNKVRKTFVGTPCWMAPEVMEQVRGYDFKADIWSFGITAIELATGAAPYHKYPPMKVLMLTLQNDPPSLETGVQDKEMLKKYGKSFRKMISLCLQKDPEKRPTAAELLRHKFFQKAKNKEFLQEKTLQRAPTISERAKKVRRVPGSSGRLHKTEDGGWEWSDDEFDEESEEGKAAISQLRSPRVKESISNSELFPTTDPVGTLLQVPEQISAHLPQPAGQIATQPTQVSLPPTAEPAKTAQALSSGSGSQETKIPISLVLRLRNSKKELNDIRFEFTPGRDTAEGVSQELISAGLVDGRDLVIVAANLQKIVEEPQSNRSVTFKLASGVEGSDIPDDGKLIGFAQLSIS
Assay [11] concerns the target T2, 3-phosphoinositide-dependent protein kinase 1 (Homo sapiens) (UniProt O15530).
T2 sequence (whole entry): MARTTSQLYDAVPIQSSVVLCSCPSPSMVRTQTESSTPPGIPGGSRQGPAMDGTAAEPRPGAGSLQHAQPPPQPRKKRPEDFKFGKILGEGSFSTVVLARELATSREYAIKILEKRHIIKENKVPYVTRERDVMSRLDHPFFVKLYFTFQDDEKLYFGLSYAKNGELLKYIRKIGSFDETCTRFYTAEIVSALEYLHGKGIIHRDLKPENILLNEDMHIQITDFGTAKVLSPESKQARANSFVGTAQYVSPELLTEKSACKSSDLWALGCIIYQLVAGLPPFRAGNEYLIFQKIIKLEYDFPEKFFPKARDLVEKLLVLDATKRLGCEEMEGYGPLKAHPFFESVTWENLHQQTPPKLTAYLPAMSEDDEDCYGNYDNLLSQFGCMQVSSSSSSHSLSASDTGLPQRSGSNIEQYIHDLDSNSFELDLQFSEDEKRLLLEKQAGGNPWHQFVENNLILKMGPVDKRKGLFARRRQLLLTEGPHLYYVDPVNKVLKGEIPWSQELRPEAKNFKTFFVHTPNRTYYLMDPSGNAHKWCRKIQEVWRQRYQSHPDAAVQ

The target in assay [12] is cAMP-dependent protein kinase catalytic subunit alpha (Homo sapiens) (UniProt P17612).
The target in assay [13] is Serine/threonine-protein kinase RIO2 (Homo sapiens) (UniProt Q9BVS4).
Assay [14] has as its target Ribosomal protein S6 kinase alpha-3 (Homo sapiens) (UniProt P51812).
Assay [15] concerns the target STE20-like serine/threonine-protein kinase (Homo sapiens) (UniProt Q9H2G2).
Assay [16] deals with Serine/threonine-protein kinase 16 (Homo sapiens) (UniProt O75716).
Sequence of Serine/threonine-protein kinase 16 (Homo sapiens) (O75716 whole entry): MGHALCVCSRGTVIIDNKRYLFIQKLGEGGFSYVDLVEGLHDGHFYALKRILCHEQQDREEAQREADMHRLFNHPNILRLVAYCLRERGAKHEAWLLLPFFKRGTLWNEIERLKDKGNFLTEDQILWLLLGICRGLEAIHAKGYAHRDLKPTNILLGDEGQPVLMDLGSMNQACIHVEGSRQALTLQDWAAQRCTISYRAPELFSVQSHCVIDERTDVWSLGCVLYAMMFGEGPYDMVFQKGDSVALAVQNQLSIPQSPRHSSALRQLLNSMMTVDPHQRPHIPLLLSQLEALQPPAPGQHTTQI
For assay [17], the target named is Serine/threonine-protein kinase 38 (Homo sapiens) (UniProt Q15208).
Sequence of Serine/threonine-protein kinase 38 (Homo sapiens) (Q15208 2-465 limits assumed): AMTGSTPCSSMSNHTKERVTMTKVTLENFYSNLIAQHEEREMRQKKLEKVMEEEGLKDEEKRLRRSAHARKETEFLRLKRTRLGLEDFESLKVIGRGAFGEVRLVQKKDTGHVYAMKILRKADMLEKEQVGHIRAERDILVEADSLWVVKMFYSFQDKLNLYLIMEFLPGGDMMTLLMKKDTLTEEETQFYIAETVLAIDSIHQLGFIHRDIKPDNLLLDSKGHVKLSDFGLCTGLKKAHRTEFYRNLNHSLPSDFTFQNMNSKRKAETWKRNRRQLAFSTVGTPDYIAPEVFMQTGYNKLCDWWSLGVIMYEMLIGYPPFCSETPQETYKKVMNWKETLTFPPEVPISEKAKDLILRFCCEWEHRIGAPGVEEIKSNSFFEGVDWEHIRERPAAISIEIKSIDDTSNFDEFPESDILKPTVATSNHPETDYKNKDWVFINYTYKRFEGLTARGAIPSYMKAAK
The target in assay [18] is T3, Serine/threonine-protein kinase 4 (Homo sapiens) (UniProt Q13043).
T3 sequence (whole entry): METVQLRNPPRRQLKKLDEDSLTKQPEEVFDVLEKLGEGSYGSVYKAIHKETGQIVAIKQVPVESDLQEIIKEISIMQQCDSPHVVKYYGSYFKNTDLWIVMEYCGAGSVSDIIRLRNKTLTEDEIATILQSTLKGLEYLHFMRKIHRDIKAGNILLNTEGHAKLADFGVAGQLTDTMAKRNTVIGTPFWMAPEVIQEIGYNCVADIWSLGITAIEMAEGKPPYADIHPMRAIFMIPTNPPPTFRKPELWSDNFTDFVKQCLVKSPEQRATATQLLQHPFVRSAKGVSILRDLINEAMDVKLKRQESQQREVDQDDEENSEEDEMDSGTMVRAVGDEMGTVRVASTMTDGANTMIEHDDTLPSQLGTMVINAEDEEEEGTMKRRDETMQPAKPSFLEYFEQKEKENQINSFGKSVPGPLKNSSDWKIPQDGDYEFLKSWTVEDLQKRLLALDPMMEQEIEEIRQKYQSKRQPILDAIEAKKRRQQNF

The target of assay [19] is T4, Lymphokine-activated killer T-cell-originated protein kinase (Homo sapiens) (UniProt Q96KB5).
T4 sequence (whole entry): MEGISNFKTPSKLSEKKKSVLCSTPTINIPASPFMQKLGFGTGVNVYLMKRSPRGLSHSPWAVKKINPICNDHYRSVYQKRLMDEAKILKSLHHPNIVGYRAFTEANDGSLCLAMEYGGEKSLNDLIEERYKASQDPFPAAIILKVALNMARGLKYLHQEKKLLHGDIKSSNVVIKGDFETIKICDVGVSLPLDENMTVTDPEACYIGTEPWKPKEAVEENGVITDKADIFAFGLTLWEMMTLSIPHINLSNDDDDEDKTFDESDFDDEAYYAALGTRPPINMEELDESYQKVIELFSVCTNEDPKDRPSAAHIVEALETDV

Assay [20] has as its target Serine/threonine-protein kinase VRK2 (Homo sapiens) (UniProt Q86Y07).
Assay [21] deals with Serine/threonine-protein kinase 25 (Homo sapiens) (UniProt O00506).

Sequence of Cyclin-dependent kinase 6 (Homo sapiens) (Q00534 whole entry): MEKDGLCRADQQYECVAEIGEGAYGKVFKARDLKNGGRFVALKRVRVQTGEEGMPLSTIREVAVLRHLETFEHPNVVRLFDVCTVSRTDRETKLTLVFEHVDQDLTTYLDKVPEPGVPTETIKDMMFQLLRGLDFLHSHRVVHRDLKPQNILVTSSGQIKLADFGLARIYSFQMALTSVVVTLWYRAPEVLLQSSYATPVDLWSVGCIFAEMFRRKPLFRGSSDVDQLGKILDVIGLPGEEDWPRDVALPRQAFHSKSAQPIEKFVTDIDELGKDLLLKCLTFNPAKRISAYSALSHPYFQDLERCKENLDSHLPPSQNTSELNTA
Sequence of Calcium/calmodulin-dependent protein kinase type 1D (Homo sapiens) (Q8IU85 whole entry, looked up): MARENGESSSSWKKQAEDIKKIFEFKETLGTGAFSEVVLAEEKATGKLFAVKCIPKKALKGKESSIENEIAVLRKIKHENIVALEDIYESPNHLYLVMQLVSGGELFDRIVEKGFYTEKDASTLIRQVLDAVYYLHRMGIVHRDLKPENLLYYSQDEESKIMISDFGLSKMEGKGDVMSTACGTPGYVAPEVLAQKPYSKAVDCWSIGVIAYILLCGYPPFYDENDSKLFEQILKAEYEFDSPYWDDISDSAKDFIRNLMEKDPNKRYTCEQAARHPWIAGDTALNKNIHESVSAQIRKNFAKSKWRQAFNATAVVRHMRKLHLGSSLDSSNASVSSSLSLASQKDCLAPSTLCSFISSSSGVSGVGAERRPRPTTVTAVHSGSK
Sequence of Serine/threonine-protein kinase Nek6 (Homo sapiens) (Q9HC98 whole entry): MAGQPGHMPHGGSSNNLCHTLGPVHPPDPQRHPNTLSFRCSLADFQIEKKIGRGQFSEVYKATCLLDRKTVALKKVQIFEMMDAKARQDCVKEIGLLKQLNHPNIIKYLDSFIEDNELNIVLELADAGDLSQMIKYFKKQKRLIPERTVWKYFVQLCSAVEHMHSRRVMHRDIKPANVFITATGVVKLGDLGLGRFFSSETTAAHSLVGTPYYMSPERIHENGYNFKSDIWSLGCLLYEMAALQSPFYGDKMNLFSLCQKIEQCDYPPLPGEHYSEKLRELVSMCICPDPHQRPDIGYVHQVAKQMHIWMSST
Sequence of Ribosomal protein S6 kinase alpha-3 (Homo sapiens) (P51812 whole entry): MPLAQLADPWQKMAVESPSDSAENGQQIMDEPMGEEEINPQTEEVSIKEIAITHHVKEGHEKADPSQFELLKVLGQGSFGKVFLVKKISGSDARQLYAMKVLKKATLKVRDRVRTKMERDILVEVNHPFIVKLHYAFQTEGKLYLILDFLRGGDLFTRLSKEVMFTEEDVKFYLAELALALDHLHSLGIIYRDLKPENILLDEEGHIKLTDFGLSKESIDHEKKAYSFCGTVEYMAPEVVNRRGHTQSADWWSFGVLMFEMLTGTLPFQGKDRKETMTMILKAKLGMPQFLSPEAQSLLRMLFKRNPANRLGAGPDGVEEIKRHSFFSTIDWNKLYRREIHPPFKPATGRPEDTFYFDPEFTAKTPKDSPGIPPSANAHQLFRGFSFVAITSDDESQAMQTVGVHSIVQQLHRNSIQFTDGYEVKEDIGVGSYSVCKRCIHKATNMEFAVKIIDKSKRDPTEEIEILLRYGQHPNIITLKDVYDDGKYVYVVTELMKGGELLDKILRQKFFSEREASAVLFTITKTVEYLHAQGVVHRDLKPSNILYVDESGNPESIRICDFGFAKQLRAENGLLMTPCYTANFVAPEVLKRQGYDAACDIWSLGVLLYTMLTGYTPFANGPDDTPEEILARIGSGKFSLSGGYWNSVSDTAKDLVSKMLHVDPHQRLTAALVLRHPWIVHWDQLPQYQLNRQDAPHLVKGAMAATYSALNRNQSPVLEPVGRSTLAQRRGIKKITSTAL
Sequence of Serine/threonine-protein kinase VRK2 (Homo sapiens) (Q86Y07 whole entry): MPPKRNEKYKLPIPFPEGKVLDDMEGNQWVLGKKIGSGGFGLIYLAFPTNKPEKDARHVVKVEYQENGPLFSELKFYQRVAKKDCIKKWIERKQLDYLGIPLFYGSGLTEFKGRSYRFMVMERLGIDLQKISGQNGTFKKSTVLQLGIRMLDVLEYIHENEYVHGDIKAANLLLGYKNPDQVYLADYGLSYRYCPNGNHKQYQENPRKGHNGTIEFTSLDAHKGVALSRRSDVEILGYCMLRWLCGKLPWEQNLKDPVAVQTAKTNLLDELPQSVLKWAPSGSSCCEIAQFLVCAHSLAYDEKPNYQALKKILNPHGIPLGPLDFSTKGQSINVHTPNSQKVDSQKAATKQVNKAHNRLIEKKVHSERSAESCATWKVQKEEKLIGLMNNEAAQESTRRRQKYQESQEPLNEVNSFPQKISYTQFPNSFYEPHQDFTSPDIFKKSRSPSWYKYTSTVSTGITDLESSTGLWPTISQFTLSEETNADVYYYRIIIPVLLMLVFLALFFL
Sequence of Dual specificity mitogen-activated protein kinase kinase 2 (P36507 whole entry): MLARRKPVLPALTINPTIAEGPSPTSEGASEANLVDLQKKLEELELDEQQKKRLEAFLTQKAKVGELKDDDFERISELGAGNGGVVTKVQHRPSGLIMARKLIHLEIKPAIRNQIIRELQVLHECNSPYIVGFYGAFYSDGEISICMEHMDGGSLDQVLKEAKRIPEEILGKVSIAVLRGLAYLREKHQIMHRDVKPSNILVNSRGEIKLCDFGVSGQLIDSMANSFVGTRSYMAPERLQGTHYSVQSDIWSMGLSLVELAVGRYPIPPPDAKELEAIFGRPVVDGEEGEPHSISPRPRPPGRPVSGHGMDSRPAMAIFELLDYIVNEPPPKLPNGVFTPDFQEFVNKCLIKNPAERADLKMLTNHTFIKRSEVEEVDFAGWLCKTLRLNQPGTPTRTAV

Turning to `CCN(CC)CCNC(=O)c1c(C)[nH]c(/C=C2\C(=O)Nc3ccc(Cl)cc32)c1C` [SU-11652], the ΔTm in [1] is 2.6 °C; in assay [2], 5.7 °C; in [3], 2 °C; in [4] it was 6.6 °C; in assay [5], 5.9 °C; in assay [6], 6.3 °C. Moreover, the ΔTm in assay [7] is 0 °C; in assay [8], 5.1 °C; in assay [9] it was -0.8 °C; in assay [10] it was 2.9 °C; in assay [11], -0.7 °C; in assay [12] it was 2 °C. The ΔTm in [13] stood at 1.6 °C; in [14], 8.5 °C; in [15], 7.5 °C; in assay [16], 6 °C; in assay [17] it was 2.7 °C; in assay [18], 10.2 °C. In addition, the shift in melting temperature (ΔTm) was -0.4 °C in [19], 0.7 °C in assay [20] and 7.4 °C in assay [21].

Take `CC(C)(C)n1nc(-c2cccc3ccccc23)c2c(N)ncnc21`: the thermal shift (ΔTm) in [1] was -0.3 °C; in assay [2], -0.3 °C; in assay [3], -0.3 °C; in assay [4] it was 1.1 °C; in assay [5], -0.8 °C; in assay [6], 3.2 °C. For the same molecule, the shift in melting temperature (ΔTm) in [7] was 0.8 °C; in assay [8] it was -0.2 °C; in assay [9], 0.1 °C; in [10], 1.1 °C; in [11] it was -0.4 °C; in assay [12], 2.1 °C. In addition, the ΔTm in assay [13] is 0.4 °C; in assay [14], 2.4 °C; in assay [15], 6.1 °C; in [16], 0.7 °C; in [17], 0.4 °C; in [18], 3.2 °C. The ΔTm in assay [19] was 0.5 °C; in assay [20], 2.8 °C; in assay [21], 1.3 °C.

`NCCNS(=O)(=O)c1cccc2c(Cl)cccc12`: the shift in melting temperature (ΔTm) in assay [1] is 0 °C; in [2], 0 °C; in assay [3], -0.1 °C; in assay [4], 0.9 °C; in assay [5], 3.2 °C; in [6] it was -0.3 °C. Further, the ΔTm is 0.1 °C in assay [7]; 0.7 °C in [8]; -0.4 °C in [9]; 0.7 °C in assay [10]; -0.2 °C in assay [11]; 2.5 °C in assay [12]. In addition, the ΔTm in [13] is 0.2 °C; in assay [14], 0.5 °C; in assay [15] it was 0.1 °C; in assay [16] it was 0.2 °C; in [17], -0.1 °C; in assay [18], 0.4 °C. Further, the ΔTm in assay [19] was -0.2 °C; in [20], 0.1 °C; in [21] it was -0.2 °C.

In the case of `C[C@@H]1C[C@H]2O[C@@H]2/C=C\C=C\C(=O)Cc2c(Cl)c(O)cc(O)c2C(=O)O1` [RADICICOL], the ΔTm in assay [1] is 0 °C; in assay [2] it was 0.6 °C; in [3], -0.5 °C; in assay [4], 0 °C; in [5], -0.3 °C; in [6] it was 0 °C. The ΔTm in [7] is 0 °C; in [8], 0.2 °C; in assay [9] it was -0.6 °C; in [10] it was 1.4 °C; in assay [11], 0.2 °C; in assay [12], 0.7 °C. For the same molecule, the ΔTm in [13] is -0.5 °C; in assay [14] it was 0.2 °C; in assay [15] it was 0.4 °C; in assay [16], 0.3 °C; in assay [17], 0.3 °C; in assay [18] it was 0.3 °C. The shift in melting temperature (ΔTm) in assay [19] was 0.2 °C; in [20], 0.2 °C; in [21], -0.6 °C.
